The text below walks through data of patent US20160263087A1, “NOVEL 4-(INDOL-3-YL)-PYRAZOLE DERIVATIVES, PHARMACEUTICAL COMPOSITIONS AND METHODS FOR USE” (ITEOS THERAPEUTICS, priority 2013, published 2016).

Some results are limits rather than exact numbers.

human TDO2, sequence (P48775 whole entry): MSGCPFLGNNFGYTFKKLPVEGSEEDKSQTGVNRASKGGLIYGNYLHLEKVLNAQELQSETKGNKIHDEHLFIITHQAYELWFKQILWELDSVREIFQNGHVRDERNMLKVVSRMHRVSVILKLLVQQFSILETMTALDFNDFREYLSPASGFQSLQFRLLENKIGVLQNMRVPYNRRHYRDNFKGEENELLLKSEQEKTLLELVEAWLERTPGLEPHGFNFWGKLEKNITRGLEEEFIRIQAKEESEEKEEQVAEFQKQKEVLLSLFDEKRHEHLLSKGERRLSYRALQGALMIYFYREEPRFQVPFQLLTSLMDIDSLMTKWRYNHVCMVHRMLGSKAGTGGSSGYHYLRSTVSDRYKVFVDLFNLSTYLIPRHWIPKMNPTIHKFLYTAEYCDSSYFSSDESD

The first data set concerns the target human TDO2 (Homo sapiens, UniProt P48775). Briefly: Assay for TDO2 enzymatic activity determination. It is filed as biochemical. Set-up: made in house. The following applies: human recombinant TDO2, L-Trp 1 mM, room temperature, one hour, kynurenine absorbance at 480 nm. On the procedure:
To measure the TDO2 activity, the reaction mixture contained (final concentrations) potassium phosphate buffer (50 mM, pH 7.5), ascorbic acid (0.25 M), methylene blue (0.125 μM), catalase (40 units/mL, from bovine liver, Sigma), and human recombinant TDO2 enzyme (prepared as described in Dolusic et al. J. Med. Chem.; 2011, 54, 5320-5334; 0.9 μg) without or with the compounds of the present invention at the indicated concentrations (total volume 112.5 μL). The reaction was initiated by the addition of 37.5 μL of L-Trp (final concentration 1 mM) at room temperature. The reaction was conducted at room temperature during one hour and stopped by the addition of 30 μL of 30% (w/v) trichloroacetic acid.
To convert N-formylkynurenine into kynurenine, the reaction mixture was incubated at 65° C. for 30 min. Then 150 μL of the reaction mixture was mixed with 120 μL of 2.5% (w/v) 4-(dimethylamino)-benzaldehyde in acetic acid and incubated for 5 min at room temperature. Kynurenine concentrations were determined by measuring the absorbance at 480 nm. A standard curve was made with pure kynurenine. The TDO activity was measured as described above using ten serial concentrations of the compounds of the present invention. Data were fitted using the Prism software (GraphPad Software, Inc.).
Consider `COCCS(=O)(=O)N1CCC(n2cc(-c3c[nH]c4cc(F)ccc34)cn2)CC1` [Compound 96, 6-fluoro-3-(1-(1-((2-methoxyethyl)sulfonyl)piperidin-4-yl)-1H-pyrazol-4-yl)-1H-indole], for which the IC50 – broadly, the concentration that inhibits the measured activity by half – is 1 to 10 µM.

Take `C=CC(=O)N1CCC(n2cc(-c3c[nH]c4cc(F)ccc34)cn2)CC1` [Compound 102, 1-(4-(4-(6-fluoro-1H-indol-3-yl)-1H-pyrazol-1-yl)piperidin-1-yl)prop-2-en-1-one]: the IC50 was in the range of 1 to 10 µM.

Turning to `O=S(=O)(N1CCC(n2cc(-c3c[nH]c4cc(F)ccc34)cn2)CC1)C(F)(F)F` [Compound 92, 6-fluoro-3-(1-(1-((trifluoromethyl)sulfonyl)piperidin-4-yl)-1H-pyrazol-4-yl)-1H-indole], the IC50 was 1 to 10 µM.

With `CCS(=O)(=O)N1CCC(n2cc(-c3c[nH]c4cc(F)ccc34)cn2)CC1` [Compound 98, 3-(1-(1-(ethylsulfonyl)piperidin-4-yl)-1H-pyrazol-4-yl)-6-fluoro-1H-indole], the IC50 was in the range of 1 to 10 µM.

`NC(=O)CCn1cc(-c2c[nH]c3cc(F)c(F)cc23)cn1` [Compound 8, 3-(4-(5,6-difluoro-1H-indol-3-yl)-1H-pyrazol-1-yl)propanamide]: the IC50 is 1 to 10 µM.

`CC(C)S(=O)(=O)N1CCC(n2cc(-c3c[nH]c4cc(F)ccc34)cn2)CC1` [Compound 99, 6-fluoro-3-(1-(1-(isopropylsulfonyl)piperidin-4-yl)-1H-pyrazol-4-yl)-1H-indole]: the IC50 is 1 to 10 µM.

For `Cc1c(-c2c[nH]c3cc(F)ccc23)cnn1CC1CCNCC1` [Compound 57, 6-fluoro-3-(5-methyl-1-(piperidin-4-ylmethyl)-1H-pyrazol-4-yl)-1H-indole], the IC50 fell in the range of 1 to 10 µM.

Regarding `Cc1nn(CC2CCNCC2)c(C)c1-c1c[nH]c2cc(F)ccc12` [Compound 55, 3-(3,5-dimethyl-1-(piperidin-4-ylmethyl)-1H-pyrazol-4-yl)-6-fluoro-1H-indole], the half-inhibitory concentration (IC50) fell in the range of 10 to 100 µM.

Take `CC(=O)N1CCC(n2ncc(-c3c[nH]c4cc(F)ccc34)c2C)CC1` [Compound 95, 1-(4-(4-(6-fluoro-1H-indol-3-yl)-5-methyl-1H-pyrazol-1-yl)piperidin-1-yl)ethanone]: the concentration for half-maximal inhibition (IC50) fell in the range of 1 to 10 µM.

Turning to `O=S(=O)(C1CC1)N1CCC(n2cc(-c3c[nH]c4cc(F)ccc34)cn2)CC1` [Compound 97, 3-(1-(1-(cyclopropylsulfonyl)piperidin-4-yl)-1H-pyrazol-4-yl)-6-fluoro-1H-indole], the IC50 was in the range of 1 to 10 µM.

In the case of `Cc1nn(CC2CCNCC2)cc1-c1c[nH]c2cc(F)ccc12` [Compound 56, 6-fluoro-3-(3-methyl-1-(piperidin-4-ylmethyl)-1H-pyrazol-4-yl)-1H-indole], the IC50 was under 1 µM.

As to `Cc1nn(CCS(C)(=O)=O)c(C)c1-c1c[nH]c2cc(F)ccc12` [Compound 33, 3-(3,5-dimethyl-1-(2-(methylsulfonyl)ethyl)-1H-pyrazol-4-yl)-6-fluoro-1H-indole], the IC50 was 10 to 100 µM.

Regarding `Cc1nn(CCC(N)=O)c(C)c1-c1c[nH]c2cc(F)ccc12` [Compound 9, 3-(4-(6-fluoro-1H-indol-3-yl)-3,5-dimethyl-1H-pyrazol-1-yl)propanamide], the IC50 was 1 to 10 µM.

As for `CC(=O)N1CCC(n2cc(-c3c[nH]c4cc(F)ccc34)c(C)n2)CC1` [Compound 94, 1-(4-(4-(6-fluoro-1H-indol-3-yl)-3-methyl-1H-pyrazol-1-yl)piperidin-1-yl)ethanone], the IC50 fell in the range of 10 to 100 µM.

System in a further data set: not given
Assay: not given
Details: not given
For the compound `Fc1cc2[nH]cc(-c3cnn(CC4CCNCC4)c3)c2cc1F` [Compound 44, 5,6-difluoro-3-(1-(piperidin-4-ylmethyl)-1H-pyrazol-4-yl)-1H-indole], the melting point (usually the temperature of the solid-liquid transition) fell in the range of 167.1 to 168.9 °C.

The compound `CC(C)(C)C(=O)N1CCC(n2cc(-c3c[nH]c4cc(F)ccc34)cn2)CC1` [Compound 87, 1-(4-(4-(6-fluoro-1H-indol-3-yl)-1H-pyrazol-1-yl)piperidin-1-yl)-2,2-dimethylpropan-1-one] registered a melting point of 231 to 232 °C.

Compound `CC(Cn1cc(-c2c[nH]c3cc(F)ccc23)cn1)C(N)=O` (single isomer, unassigned) [Compound 35, 3-(4-(6-fluoro-1H-indol-3-yl)-1H-pyrazol-1-yl)-2-methylpropanamide] gave a melting point of 184.5 to 185.5 °C.

`CNCCn1cc(-c2c[nH]c3cc(F)ccc23)cn1` [Compound 24, 2-(4-(6-fluoro-1H-indol-3-yl)-1H-pyrazol-1-yl)-N-methylethanamine] registered a melting point of 94.2 to 95.2 °C.

With `Fc1ccc2c(-c3cnn(CC4CCOCC4)c3)c[nH]c2c1` [Compound 58, 6-fluoro-3-(1-((tetrahydro-2H-pyran-4-yl)methyl)-1H-pyrazol-4-yl)-1H-indole], the melting point is 138.9 to 139.6 °C.

As for `O=C(CO)N1CCC(n2cc(-c3c[nH]c4cc(F)ccc34)cn2)CC1` [Compound 84, 1-(4-(4-(6-fluoro-1H-indol-3-yl)-1H-pyrazol-1-yl)piperidin-1-yl)-2-hydroxyethanone], the melting point lay within 99.9 to 102.1 °C.

In the case of `CN(C)C(=O)N1CCC(n2cc(-c3c[nH]c4cc(F)ccc34)cn2)CC1` [Compound 90, 4-(4-(6-fluoro-1H-indol-3-yl)-1H-pyrazol-1-yl)-N,N-dimethylpiperidine-1-carboxamide], the melting point was 223 to 224.6 °C.

As for `CC(=O)NCCn1cc(-c2c[nH]c3cc(F)ccc23)cn1` [Compound 21, N-(2-(4-(6-fluoro-1H-indol-3-yl)-1H-pyrazol-1-yl)ethyl)acetamide], the melting point was in the range of 179.5 to 180.8 °C.

`CN1CCC(n2cc(-c3c[nH]c4cc(F)ccc34)cn2)CC1` [Compound 91, 6-fluoro-3-(1-(1-methylpiperidin-4-yl)-1H-pyrazol-4-yl)-1H-indole] displayed a melting point of 222.8 to 223.7 °C.

As for `Fc1ccc2c(-c3cnn(C4CCNCC4)c3)c[nH]c2c1` [Compound 78, 6-fluoro-3-(1-(piperidin-4-yl)-1H-pyrazol-4-yl)-1H-indole], the melting point is 240.1 to 241.8 °C.

Regarding `CS(=O)(=O)CCn1cc(-c2c[nH]c3cc(F)ccc23)cn1` [Compound 31, 6-fluoro-3-(1-(2-(methylsulfonyl)ethyl)-1H-pyrazol-4-yl)-1H-indole], the melting point was in the range of 153.3 to 155.1 °C.

`CN(C)CC(=O)N1CCC(n2cc(-c3c[nH]c4cc(F)ccc34)cn2)CC1` [Compound 83, 2-(dimethylamino)-1-(4-(4-(6-fluoro-1H-indol-3-yl)-1H-pyrazol-1-yl)piperidin-1-yl)ethanone] gave a melting point of 193.7 to 196.1 °C.

As for `NC(=O)CCn1cc(-c2c[nH]c3cc(F)ccc23)cn1` [Compound 7, 3-(4-(6-fluoro-1H-indol-3-yl)-1H-pyrazol-1-yl)propanamide], the melting point is 173.3 to 175 °C.

Consider `CC(C)C(=O)N1CCC(n2cc(-c3c[nH]c4cc(F)ccc34)cn2)CC1` [Compound 86, 1-(4-(4-(6-fluoro-1H-indol-3-yl)-1H-pyrazol-1-yl)piperidin-1-yl)-2-methylpropan-1-one], for which the melting point was in the range of 210.2 to 211 °C.

As to `O=C(O)CCC(=O)N1CCC(n2cc(-c3c[nH]c4cc(F)ccc34)cn2)CC1` [Compound 80, 4-(4-(4-(6-fluoro-1H-indol-3-yl)-1H-pyrazol-1-yl)piperidin-1-yl)-4-oxobutanoic acid], the melting point lay within 226 to 228 °C.

Compound `CS(=O)(=O)CCn1cc(-c2c[nH]c3cc(F)c(F)cc23)cn1` [Compound 32, 5,6-difluoro-3-(1-(2-(methylsulfonyl)ethyl)-1H-pyrazol-4-yl)-1H-indole] returned a melting point of 170.6 to 171.9 °C.

The compound `O=C(C1CC1)N1CCC(n2cc(-c3c[nH]c4cc(F)ccc34)cn2)CC1` [Compound 88, cyclopropyl(4-(4-(6-fluoro-1H-indol-3-yl)-1H-pyrazol-1-yl)piperidin-1-yl)methanone] registered a melting point of 190.7 to 191.4 °C.

As to `O=S1(=O)CCC(Cn2cc(-c3c[nH]c4cc(F)ccc34)cn2)CC1` [Compound 60, 4-((4-(6-fluoro-1H-indol-3-yl)-1H-pyrazol-1-yl)methyl)tetrahydro-2H-thiopyran 1,1-dioxide], the melting point lay in the range of 193.1 to 194.1 °C.
